Test results from article PMC4376353 (Angewandte Chemie (International ed. in English), 2015).

Key:
LanGT2 [1] = biological target: T1, LanGT2 (Streptomyces cyanogenus, UniProt Q9ZGC0); assay: X-ray crystal structure; assay type: binding; conditions: nucleotide-sugar site; TDP-olivose had broken down, product TDP bound
T1 sequence (Q9ZGC0 1-373): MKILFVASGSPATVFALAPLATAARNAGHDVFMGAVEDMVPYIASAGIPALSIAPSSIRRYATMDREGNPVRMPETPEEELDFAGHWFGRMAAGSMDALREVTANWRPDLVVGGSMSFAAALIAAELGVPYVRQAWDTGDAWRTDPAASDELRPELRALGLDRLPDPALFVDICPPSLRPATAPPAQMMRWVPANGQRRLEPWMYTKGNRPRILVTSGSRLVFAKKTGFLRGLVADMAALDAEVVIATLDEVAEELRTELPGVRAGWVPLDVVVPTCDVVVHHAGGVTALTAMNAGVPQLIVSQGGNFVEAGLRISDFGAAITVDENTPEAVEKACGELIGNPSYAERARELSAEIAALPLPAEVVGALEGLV

LanGT2 [2] = biological target: T1, LanGT2; assay: X-ray crystal structure; assay type: binding; conditions: non-hydrolyzable substrate analogue; nucleotide-sugar site; 1.85 Å

Row | Compound | X-ray crystal structure (crystals treated with TDP-olivose) (LanGT2 [1]) | X-ray crystal structure (crystal soaking) (LanGT2 [2])
1 | Cc1cn([C@H]2C[C@H](O)[C@@H](COP(=O)(O)OP(=O)(O)O)O2)c(=O)[nH]c1=O [TDP] | thus resulting in structures that invariably only had the product TDP bound | 
2 | Cc1cn([C@H]2C[C@H](O)[C@@H](COP(=O)(O)OP(=O)(O)O[C@@H]3C[C@@H](O)[C@H](O)[C@@H](C)C3)O2)c(=O)[nH]c1=O [compound 8, TDP-carba-D-olivose] |  | LanGT2 crystals were soaked with the synthetic TDP-carba-D-olivose (TcO)
